Reference: patent publication US20110053773A1, “METHODS OF IMPROVING NUTRITIONAL VALUE OF PLANTS” (UNIVERSITY OF TENNESSEE RESEARCH FOUNDATION, priority 2009, published 2011)

What was measured:
basil 'Genovese' [1] = assay: Content analysis of basil: protein, minerals (Example 4, Tables 10-11); format: in vivo; details: 28 DA-A
In short: (§1)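 Plants were harvested about 4 weeks post-treatment and pooled across replicates to analyse protein, amino acids, fiber, fatty acids and minerals (Na, Ca, P, Mg, K, Fe, Mn, Zn, Cu). Treatments were postemergence insecticide, fungicide, PGRs and safeners. Visual injury scored 0–100% (phytotoxicity, chlorosis, stunting).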

basil 'Genovese' [2] = assay: Visual injury of basil after insecticide, fungicide, PGRs, safeners (Example 4)
In short: as §1

kale 'Red Russian' = assay: Visual injury of kale after insecticide, fungicide, PGRs, safeners (Example 4)
Protocol: Greenhouse and laboratory studies were conducted to ascertain the tolerance and nutritional quality differences following postemergence applications of the insecticide chlorpyrifos, the fungicide chlorothalonil, the PGRs mepiquat-chloride and paclobutrazol, and the safeners napthalic anhydride and isoxadifen-ethyl on kale ‘Red Russian’ and basil ‘Genovese’. Visual injury was rated based on general phytotoxicity, chlorosis, and visual stunting and each measurement was based on a percent scale from 0 to 100 where 0 equals no visual response and 100 equals complete plant death. Kale and basil were both harvested approximately 4 weeks after treatments and plants were pooled over replicates for content analysis of crude protein, crude amino acid content, acid detergent fiber, neutral detergent fiber, total fatty acids, and/or key mineral content (including Na, Ca, P, Mg, K, Fe, Mn, Zn, and Cu). In addition, the amounts of key individual amino acids (aspartic acid, threonine, glutamic acid, proline, glycine, cysteine, valine, leucine, isoleucine, methionine, and lysine) and composite classifications of fatty acid (saturated fatty acids, monounsaturated fatty acids, polyunsaturated fatty acids) were also analyzed from these sub-samples for kale (Tables 10-14).

[3] = rates g ai/ha: chlroprifos 3370, chlorothalonil 7900, paclobutrazol 9.7, mepiquat-chloride 37, Isoxadifen 16, Napthalic anhydride 527, + NIS 0.25 % v/v
[4] = rates g ai/ha: chlropyrifos 1120, chlorothalonil 2630, paclobutrazol 3.23, mepiquat-chloride 12.3, Isoxadifen 8, Napthalic anhydride 264, + NIS 0.25 % v/v
[5] = 7 DA-A, rates g ai/ha: chlropyrifos 1120, chlorothalonil 2630, paclobutrazol 3.23, mepiquat-chloride 12.3, Isoxadifen 8, Napthalic anhydride 264, + NIS 0.25 % v/v
[6] = 7 DA-A, rates g ai/ha: chlropyrifos 3370, chlorothalonil 7900, paclobutrazol 9.7, mepiquat-chloride 37, Isoxadifen 16, Napthalic anhydride 527, + NIS 0.25 % v/v
[7] = 14 DA-A, rates g ai/ha: chlropyrifos 1120, chlorothalonil 2630, paclobutrazol 3.23, mepiquat-chloride 12.3, Isoxadifen 8, Napthalic anhydride 264, + NIS 0.25 % v/v
[8] = 14 DA-A, rates g ai/ha: chlropyrifos 3370, chlorothalonil 7900, paclobutrazol 9.7, mepiquat-chloride 37, Isoxadifen 16, Napthalic anhydride 527, + NIS 0.25 % v/v
[9] = 28 DA-A, rates g ai/ha: chlropyrifos 1120, chlorothalonil 2630, paclobutrazol 3.23, mepiquat-chloride 12.3, Isoxadifen 8, Napthalic anhydride 264, + NIS 0.25 % v/v
[10] = 28 DA-A, rates g ai/ha: chlropyrifos 3370, chlorothalonil 7900, paclobutrazol 9.7, mepiquat-chloride 37, Isoxadifen 16, Napthalic anhydride 527, + NIS 0.25 % v/v
[11] = 7 DA-A, rates g ai/ha: chlropyrifos 1120, chlorothalonil 2630, paclobutrazol 3.23, mepiquat-chloride 12.3, + NIS 0.25 % v/v
[12] = 7 DA-A, rates g ai/ha: chlropyrifos 3370, chlorothalonil 7900, paclobutrazol 9.7, mepiquat-chloride 37, + NIS 0.25 % v/v
[13] = 14 DA-A, rates g ai/ha: chlropyrifos 1120, chlorothalonil 2630, paclobutrazol 3.23, mepiquat-chloride 12.3, + NIS 0.25 % v/v
[14] = 14 DA-A, rates g ai/ha: chlropyrifos 3370, chlorothalonil 7900, paclobutrazol 9.7, mepiquat-chloride 37, + NIS 0.25 % v/v
[15] = 28 DA-A, rates g ai/ha: chlropyrifos 1120, chlorothalonil 2630, paclobutrazol 3.23, mepiquat-chloride 12.3, + NIS 0.25 % v/v

C[N+]1(C)CCCCC1 [mepiquat-chloride]
ADF, Percent Increase Over the Untreated Check (on a % dry matter basis) (basil 'Genovese' [1]; [3]): −9 % check
Calcium, Percent Increase Over the Untreated Check (on a % dry matter basis) (basil 'Genovese' [1]; [3]): 2 % check
Copper, Percent Increase Over the Untreated Check (on a % dry matter basis) (basil 'Genovese' [1]; [3]): −8 % check
Iron, Percent Increase Over the Untreated Check (on a % dry matter basis) (basil 'Genovese' [1]; [3]): 6 % check
Magnesium, Percent Increase Over the Untreated Check (on a % dry matter basis) (basil 'Genovese' [1]; [3]): 16 % check
Manganese, Percent Increase Over the Untreated Check (on a % dry matter basis) (basil 'Genovese' [1]; [3]): 61 % check
NDF, Percent Increase Over the Untreated Check (on a % dry matter basis) (basil 'Genovese' [1]; [3]): −11 % check
Phosphorous, Percent Increase Over the Untreated Check (on a % dry matter basis) (basil 'Genovese' [1]; [3]): 26 % check
Potassium, Percent Increase Over the Untreated Check (on a % dry matter basis) (basil 'Genovese' [1]; [3]): −3 % check
Protein, Percent Increase Over the Untreated Check (on a % dry matter basis) (basil 'Genovese' [1]; [3]): 7 % check
Sodium, Percent Increase Over the Untreated Check (on a % dry matter basis) (basil 'Genovese' [1]; [3]): 8 % check
Soluble protein, Percent Increase Over the Untreated Check (on a % dry matter basis) (basil 'Genovese' [1]; [3]): 27 % check
Zinc, Percent Increase Over the Untreated Check (on a % dry matter basis) (basil 'Genovese' [1]; [3]): 53 % check
ADF, Percent Increase Over the Untreated Check (on a % dry matter basis) (basil 'Genovese' [1]; [4]): 7 % check
Calcium, Percent Increase Over the Untreated Check (on a % dry matter basis) (basil 'Genovese' [1]; [4]): 2 % check
Copper, Percent Increase Over the Untreated Check (on a % dry matter basis) (basil 'Genovese' [1]; [4]): 0 % check
Iron, Percent Increase Over the Untreated Check (on a % dry matter basis) (basil 'Genovese' [1]; [4]): 14 % check
Magnesium, Percent Increase Over the Untreated Check (on a % dry matter basis) (basil 'Genovese' [1]; [4]): 0 % check
Manganese, Percent Increase Over the Untreated Check (on a % dry matter basis) (basil 'Genovese' [1]; [4]): 61 % check
NDF, Percent Increase Over the Untreated Check (on a % dry matter basis) (basil 'Genovese' [1]; [4]): −8 % check
Phosphorous, Percent Increase Over the Untreated Check (on a % dry matter basis) (basil 'Genovese' [1]; [4]): 13 % check
Potassium, Percent Increase Over the Untreated Check (on a % dry matter basis) (basil 'Genovese' [1]; [4]): −4 % check
Protein, Percent Increase Over the Untreated Check (on a % dry matter basis) (basil 'Genovese' [1]; [4]): 13 % check
Sodium, Percent Increase Over the Untreated Check (on a % dry matter basis) (basil 'Genovese' [1]; [4]): −8 % check
Soluble protein, Percent Increase Over the Untreated Check (on a % dry matter basis) (basil 'Genovese' [1]; [4]): 89 % check
Zinc, Percent Increase Over the Untreated Check (on a % dry matter basis) (basil 'Genovese' [1]; [4]): 34 % check
Phytotoxicity Chlorosis (basil 'Genovese' [2]; [5]): 3%
Phytotoxicity General (basil 'Genovese' [2]; [5]): 2%
Phytotoxicity Stunting (basil 'Genovese' [2]; [5]): 3%
Phytotoxicity Chlorosis (basil 'Genovese' [2]; [6]): 5%
Phytotoxicity General (basil 'Genovese' [2]; [6]): 2%
Phytotoxicity Stunting (basil 'Genovese' [2]; [6]): 5%
Phytotoxicity Chlorosis (basil 'Genovese' [2]; [7]): 7%
Phytotoxicity General (basil 'Genovese' [2]; [7]): 5%
Phytotoxicity Stunting (basil 'Genovese' [2]; [7]): 3%
Phytotoxicity Chlorosis (basil 'Genovese' [2]; [8]): 2%
Phytotoxicity General (basil 'Genovese' [2]; [8]): 5%
Phytotoxicity Stunting (basil 'Genovese' [2]; [8]): 0%
Phytotoxicity Chlorosis (basil 'Genovese' [2]; [9]): 2%
Phytotoxicity General (basil 'Genovese' [2]; [9]): 2%
Phytotoxicity Stunting (basil 'Genovese' [2]; [9]): 2%
Phytotoxicity Chlorosis (basil 'Genovese' [2]; [10]): 2%
Phytotoxicity General (basil 'Genovese' [2]; [10]): 0%
Phytotoxicity Stunting (basil 'Genovese' [2]; [10]): 0%
Phytotoxicity Chlorosis (kale 'Red Russian'; [11]): 0%
Phytotoxicity General (kale 'Red Russian'; [11]): 9%
Phytotoxicity Stunting (kale 'Red Russian'; [11]): 4%
Phytotoxicity Chlorosis (kale 'Red Russian'; [12]): 0%
Phytotoxicity General (kale 'Red Russian'; [12]): 10%
Phytotoxicity Stunting (kale 'Red Russian'; [12]): 1%
Phytotoxicity Chlorosis (kale 'Red Russian'; [13]): 15%
Phytotoxicity General (kale 'Red Russian'; [13]): 1%
Phytotoxicity Stunting (kale 'Red Russian'; [13]): 16%
Phytotoxicity Chlorosis (kale 'Red Russian'; [14]): 4%
Phytotoxicity General (kale 'Red Russian'; [14]): 0%
Phytotoxicity Stunting (kale 'Red Russian'; [14]): 3%
Phytotoxicity Chlorosis (kale 'Red Russian'; [15]): 6%
Phytotoxicity General (kale 'Red Russian'; [15]): 1%
